Test results from patent US20190076510A1, “PROTEIN KINASE C INHIBITION TO EXTEND TISSUE PLASMINOGEN ACTIVATOR TREATMENT FOR ISCHEMIC DISEASE” (THE REGENTS OF THE UNIVERSITY OF MICHIGAN, priority 2017, published 2019).

What was measured:
[1] = test system: photothrombotic MCAO mice; experiment: MCAO-induced cerebral vascular permeability to fluorescent-labeled 70 kDa dextran; type: in vivo, mouse; conditions: separate experiments
[2] = test system: vascular permeability in the eye; conditions: in vivo; cited from earlier work
[3] = test system: photothrombotic MCAO mice; experiment: Hemorrhagic transformation (ICH) after MCAO with late rtPA thrombolysis; type: in vivo, mouse; conditions: rtPA given 5 hours after stroke
Excerpt: Transgenic mouse lines and commercially available laboratory mouse strains (Jackson Labs) were bred using standard procedures. These strains include wild-type C57BL/6J mice, and C57BL/6J mice with diet-induced obesity. Transgenic mice include mice deficient in tissue type plasminogen activator (tPA^−/−), mice expressing the S490A mutant of occludin, and mice expressing Cre under the vascular endothelium. The numbers of mice used are necessary to maintain the breeding colonies and to obtain statistical significance in the experiments. Mouse pups are weaned at 3 weeks of age. Mice are marked with standard mouse ear tags. […] Both male and female mice are used, but are initially analyzed separately. […]
Using the Tek promoter for control of stop flox expression, however, leads to 85% of bone marrow-derived cells expressing the gene as well as endothelial cells (Genesis. 2010 September; 48(9):563-7)). […] Expression of Tg:S490AOcc^+/+ reduced permeability induced by MCAO, as measured using 70 kDa dextran labeled with Texas Red (dextran). […] Five images surrounding the infarct were taken and mean pixel intensity was determined using Imaris software, averaged for each mouse with n of at least 8 mice. […]
In addition to these studies, the effect of the PKC-β inhibition on hemorrhagic transformation was measured after tPA induction in MCAO mice. […]

acute ischemic stroke = conditions: intravenous rtPA within 3-4.5 hours; cited from earlier work

With `CN(C)C[C@@H]1CCn2cc(c3ccccc32)C2=C(C(=O)NC2=O)c2cn(c3ccccc23)CCO1` [LY333531] the “reduction in cerebral permeability to dextran (surgical removal of ischemic region and penumbra, dye extraction)” value [1] was about 30%.

In the case of `CN(C)C[C@@H]1CCn2cc(c3ccccc32)C2=C(C(=O)NC2=O)c2cn(c3ccccc23)CCO1` [Ruboxistaurin®], the “vascular permeability and edema in the eye” value [2] is given as “shown to reduce vascular permeability and edema in the eye”.

In the case of “rtPA: recombinant tissue plasminogen activator, thrombolytic”, the “hemorrhagic transformation from late rtPA treatment (area of hemoglobin in serial brain sections)” value [3] is listed as “clear increase” and the “patients having absolute benefit” value (acute ischemic stroke) is listed as 90 out of 1000.
